# Results from ChEMBL document CHEMBL1201862, “PubChem BioAssay data set” (2004).
# Active and inactive are the calls of the source.
# Columns and labels:
# [1] = molecular target: T1, Corticotropin-releasing factor receptor 2/Corticotropin-releasing factor-binding protein (Homo sapiens, UniProt P24387+Q13324); experiment: Dose Response confirmation of uHTS hits for small molecule antagonists of the CRF-binding protein and CRF-R2 receptor complex.; assay type: functional; details: read-out: IC50_Mean
# T1 sequence (Q13324 whole entry): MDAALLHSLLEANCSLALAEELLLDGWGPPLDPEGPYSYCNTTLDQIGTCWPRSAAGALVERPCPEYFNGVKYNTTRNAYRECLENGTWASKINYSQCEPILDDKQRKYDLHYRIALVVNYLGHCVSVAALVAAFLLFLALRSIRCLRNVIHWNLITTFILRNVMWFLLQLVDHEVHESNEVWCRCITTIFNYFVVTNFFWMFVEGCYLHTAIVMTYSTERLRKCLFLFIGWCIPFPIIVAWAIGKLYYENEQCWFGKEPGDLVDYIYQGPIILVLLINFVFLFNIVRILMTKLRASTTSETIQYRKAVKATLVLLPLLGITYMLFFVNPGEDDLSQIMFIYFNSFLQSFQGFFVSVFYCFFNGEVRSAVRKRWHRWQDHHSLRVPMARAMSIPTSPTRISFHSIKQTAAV
# T1 sequence (P24387 whole entry): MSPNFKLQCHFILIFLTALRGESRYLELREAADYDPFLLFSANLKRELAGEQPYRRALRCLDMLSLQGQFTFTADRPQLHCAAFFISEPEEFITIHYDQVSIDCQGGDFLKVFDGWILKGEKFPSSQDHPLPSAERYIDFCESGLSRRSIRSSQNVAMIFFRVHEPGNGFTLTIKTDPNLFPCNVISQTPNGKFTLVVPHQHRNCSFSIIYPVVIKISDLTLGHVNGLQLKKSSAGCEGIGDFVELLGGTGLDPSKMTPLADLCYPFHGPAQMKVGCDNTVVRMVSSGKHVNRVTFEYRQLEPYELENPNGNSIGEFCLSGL
# [2] = CRF-BP/CRF-R2 complex antagonists, dose response, cell-based, uHTS hits, 384-well (AID 651639); assay type: functional, Homo sapiens; details: read-out: IC50_Mean
# [3] = molecular target: T1, Corticotropin-releasing factor receptor 2/Corticotropin-releasing factor-binding protein; experiment: activators of CRF receptor 2 with binding protein – uHTS hits, confirmation (AID 602473); assay type: functional; details: read-out: EC50_Mean
# [4] = StAR promoter reporter inhibition counter-screen, dose response, counter-screen for LRH-1 inverse agonist project, cell-based, luminescence, luciferase reporter (AID 651969); assay type: functional
# Steroidogenic factor 1 = Steroidogenic factor 1 (Homo sapiens, UniProt Q13285); experiment: Counterscreen for inverse agonists of the liver receptor homolog-1 (LRH-1; NR5A2): Luminescence-based cell-based high throughput dose response assay to identify inverse agonists of the Steroidogenic Factor 1 Nuclear Receptor (SF1; NR5A1).; assay type: functional
# Sequence of Steroidogenic factor 1 (Q13285 whole entry): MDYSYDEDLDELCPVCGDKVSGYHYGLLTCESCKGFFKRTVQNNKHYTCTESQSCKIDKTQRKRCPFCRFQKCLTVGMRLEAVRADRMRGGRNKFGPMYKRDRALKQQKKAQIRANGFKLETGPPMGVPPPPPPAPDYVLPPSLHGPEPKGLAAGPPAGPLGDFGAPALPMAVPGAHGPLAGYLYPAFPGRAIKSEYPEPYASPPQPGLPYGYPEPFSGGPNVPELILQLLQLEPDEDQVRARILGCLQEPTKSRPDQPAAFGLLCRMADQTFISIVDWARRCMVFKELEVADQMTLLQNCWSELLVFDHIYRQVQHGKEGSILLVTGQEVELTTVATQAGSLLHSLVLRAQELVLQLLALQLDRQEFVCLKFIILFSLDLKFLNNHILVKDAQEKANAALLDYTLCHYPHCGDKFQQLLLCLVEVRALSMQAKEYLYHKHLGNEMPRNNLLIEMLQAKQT
# [5] = molecular target: Nuclear receptor subfamily 5 group A member 2 (Homo sapiens, UniProt O00482); assay type: functional, cell-based;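 also: HEK293T cells transfected with LRH-1 and a StAR promoter luciferase reporter; potency for inhibitors that lower LRH-1 driven reporter light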
# Sequence of Nuclear receptor subfamily 5 group A member 2 (O00482 whole entry): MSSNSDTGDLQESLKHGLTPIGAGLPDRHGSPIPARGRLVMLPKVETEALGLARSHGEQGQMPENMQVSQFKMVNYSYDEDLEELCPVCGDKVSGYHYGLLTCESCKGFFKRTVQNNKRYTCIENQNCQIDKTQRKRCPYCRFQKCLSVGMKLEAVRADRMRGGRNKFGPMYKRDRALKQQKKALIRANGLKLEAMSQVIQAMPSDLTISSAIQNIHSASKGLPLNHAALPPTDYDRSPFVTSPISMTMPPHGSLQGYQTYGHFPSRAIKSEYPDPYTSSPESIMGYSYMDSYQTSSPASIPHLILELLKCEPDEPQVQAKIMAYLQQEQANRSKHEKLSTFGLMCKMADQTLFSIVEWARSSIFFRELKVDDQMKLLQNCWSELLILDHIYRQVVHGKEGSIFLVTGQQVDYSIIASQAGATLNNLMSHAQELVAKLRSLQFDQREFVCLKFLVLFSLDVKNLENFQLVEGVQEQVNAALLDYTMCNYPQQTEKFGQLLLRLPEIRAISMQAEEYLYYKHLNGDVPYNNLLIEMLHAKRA
# [6] = molecular target: Mitogen-activated protein kinase 10 (Homo sapiens, UniProt P53779); experiment: Dose response biochemical screening assay for inhibitors of c-Jun N-Terminal Kinase 3 (JNK3). [Related pubchem assays: 746 ]
# Sequence of Mitogen-activated protein kinase 10 (P53779 whole entry): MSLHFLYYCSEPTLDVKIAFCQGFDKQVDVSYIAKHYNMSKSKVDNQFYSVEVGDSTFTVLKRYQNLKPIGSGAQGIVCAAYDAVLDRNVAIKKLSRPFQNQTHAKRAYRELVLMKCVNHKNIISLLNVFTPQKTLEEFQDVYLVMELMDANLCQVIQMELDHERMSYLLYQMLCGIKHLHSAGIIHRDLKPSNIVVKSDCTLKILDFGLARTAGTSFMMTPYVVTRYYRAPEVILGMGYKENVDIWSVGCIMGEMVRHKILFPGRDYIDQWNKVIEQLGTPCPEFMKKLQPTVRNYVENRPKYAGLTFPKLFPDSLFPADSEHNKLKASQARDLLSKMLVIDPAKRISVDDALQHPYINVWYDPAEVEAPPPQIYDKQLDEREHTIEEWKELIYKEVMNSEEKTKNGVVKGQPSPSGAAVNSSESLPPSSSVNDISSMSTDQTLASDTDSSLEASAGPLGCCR
# [7] = molecular target: ADP-ribosylation factor GTPase-activating protein 1 (Rattus norvegicus, UniProt Q62848); experiment: Fluorescence polarization-based biochemical high throughput dose response screening assay to identify inhibitors of ADP-ribosylation factor GTPase activating protein 1 (ARFGAP1).; assay type: functional
# Sequence of ADP-ribosylation factor GTPase-activating protein 1 (Q62848 whole entry): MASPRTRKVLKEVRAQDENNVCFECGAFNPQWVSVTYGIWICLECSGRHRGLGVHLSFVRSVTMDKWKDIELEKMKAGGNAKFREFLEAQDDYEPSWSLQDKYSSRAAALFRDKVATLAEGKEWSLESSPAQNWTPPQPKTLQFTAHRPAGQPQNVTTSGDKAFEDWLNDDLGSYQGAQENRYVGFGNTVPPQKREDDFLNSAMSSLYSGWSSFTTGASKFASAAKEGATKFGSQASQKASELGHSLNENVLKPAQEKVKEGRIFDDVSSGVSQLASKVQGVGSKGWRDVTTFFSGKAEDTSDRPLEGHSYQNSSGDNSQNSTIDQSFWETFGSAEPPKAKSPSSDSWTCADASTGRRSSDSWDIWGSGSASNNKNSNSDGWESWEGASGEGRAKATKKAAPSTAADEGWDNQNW
# [8] = molecular target: Heat shock protein HSP 90-alpha (Homo sapiens, UniProt P07900); assay type: functional, organism-based
# [9] = Fluorescence-based cell-based high throughput dose response assay for inhibitors of the interaction of nucleotide-binding oligomerization domain containing 2 (NOD2) and the receptor-interacting serine-threonine kinase 2 (RIPK2).; assay type: functional; details: Homo sapiens
# [10] = Shn3 3'UTR reporter inhibitors, dose response, cell-based, Clone20 osteoblasts, firefly luciferase, cherry-picked (AID 624132); assay type: functional;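 also: firefly luciferase luminescence from reporter carrying the Shn3 3'UTR in osteoblasts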
# Beta Lactamase = Beta Lactamase (Pseudomonas aeruginosa, UniProt Q932Y6); experiment: beta-lactamase reporter inhibitor potency, dose response, artefact control for NOD2-RIPK2 interaction inhibitor project, BLA reporter cells, FRET fluorescence (AID 651552); assay type: functional, cell-based
# Sequence of Beta Lactamase (Q932Y6 whole entry): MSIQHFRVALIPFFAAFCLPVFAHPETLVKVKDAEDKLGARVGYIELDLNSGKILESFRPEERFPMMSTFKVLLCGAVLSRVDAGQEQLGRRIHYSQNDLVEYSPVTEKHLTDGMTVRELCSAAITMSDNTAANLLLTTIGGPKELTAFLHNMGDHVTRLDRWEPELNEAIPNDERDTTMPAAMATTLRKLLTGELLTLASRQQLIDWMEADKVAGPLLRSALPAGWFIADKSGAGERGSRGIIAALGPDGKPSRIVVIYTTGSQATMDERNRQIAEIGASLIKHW
# [11] = control 3'UTR Renilla luciferase suppression, dose response, counter-screen for Shn3 inhibitor project, cell-based, Clone20-Shn3RL, cherry-picked (AID 624133); assay type: functional
# [12] = HepG2 cell cytotoxicity, dose response, cytotoxicity control for Shn3 inhibitor project, CellTiter-Glo, cherry-picked (AID 624134); assay type: functional, cell-based
# [13] = molecular target: T2, ATP-dependent translocase ABCB1 (Homo sapiens, UniProt P08183); experiment: ABCG2 efflux pump inhibitor potency, dose response, Ig-MXP3 cells, JC-1, flow cytometry, set 2 (AID 504566); assay type: functional; details: read-out: EC50_MICROM_;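 also: flow cytometry median green fluorescence of retained JC-1 dye; potency of efflux pump inhibition measured as rising substrate retention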
# T2 sequence (P08183 whole entry): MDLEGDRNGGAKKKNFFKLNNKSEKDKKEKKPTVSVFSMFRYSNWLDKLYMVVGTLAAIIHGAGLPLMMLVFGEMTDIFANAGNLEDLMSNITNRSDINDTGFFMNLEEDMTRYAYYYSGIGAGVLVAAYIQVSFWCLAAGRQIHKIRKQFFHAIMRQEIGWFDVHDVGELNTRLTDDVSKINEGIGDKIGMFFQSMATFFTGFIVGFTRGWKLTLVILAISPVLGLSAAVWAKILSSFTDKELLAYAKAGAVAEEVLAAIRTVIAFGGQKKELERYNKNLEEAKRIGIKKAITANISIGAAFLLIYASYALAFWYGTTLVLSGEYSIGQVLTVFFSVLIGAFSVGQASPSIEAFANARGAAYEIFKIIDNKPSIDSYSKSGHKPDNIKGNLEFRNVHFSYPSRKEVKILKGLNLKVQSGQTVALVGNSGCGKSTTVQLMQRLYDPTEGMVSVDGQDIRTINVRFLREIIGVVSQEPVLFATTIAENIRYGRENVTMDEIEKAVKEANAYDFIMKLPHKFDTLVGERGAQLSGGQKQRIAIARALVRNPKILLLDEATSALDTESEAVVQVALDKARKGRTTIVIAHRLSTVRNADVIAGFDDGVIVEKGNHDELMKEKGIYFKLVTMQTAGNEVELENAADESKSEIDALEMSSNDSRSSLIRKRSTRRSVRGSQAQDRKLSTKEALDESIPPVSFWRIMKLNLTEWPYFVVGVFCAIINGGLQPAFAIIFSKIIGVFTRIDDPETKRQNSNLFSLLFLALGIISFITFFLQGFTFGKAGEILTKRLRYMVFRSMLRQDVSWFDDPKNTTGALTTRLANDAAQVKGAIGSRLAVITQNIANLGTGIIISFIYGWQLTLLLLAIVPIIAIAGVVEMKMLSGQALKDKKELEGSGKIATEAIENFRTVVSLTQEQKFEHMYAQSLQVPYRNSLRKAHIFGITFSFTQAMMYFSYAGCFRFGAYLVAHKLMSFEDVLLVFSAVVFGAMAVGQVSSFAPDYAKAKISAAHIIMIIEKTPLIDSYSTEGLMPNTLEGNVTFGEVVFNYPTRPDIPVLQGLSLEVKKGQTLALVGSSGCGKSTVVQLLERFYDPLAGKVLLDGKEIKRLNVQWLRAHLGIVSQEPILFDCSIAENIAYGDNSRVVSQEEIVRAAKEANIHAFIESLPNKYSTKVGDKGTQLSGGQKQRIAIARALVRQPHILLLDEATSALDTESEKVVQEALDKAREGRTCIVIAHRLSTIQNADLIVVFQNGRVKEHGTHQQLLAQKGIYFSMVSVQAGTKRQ
# [14] = molecular target: T2, ATP-dependent translocase ABCB1; experiment: ABCB1 efflux inhibitor potency, dose response, Jurkat-DNR cells, JC-1, flow cytometry, set 2 (AID 504569); assay type: functional; details: read-out: EC50_MICROM_;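 also: potency of pump inhibitors that raise cellular JC-1 green fluorescence up to the nicardipine level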
# [15] = molecular target: T3, Rac GTPase-activating protein 1 (Homo sapiens, UniProt Q9H0H5); experiment: MgcRacGAP GTPase-activating activity inhibitors, confirmation, biochemical, ADP Hunter fluorescence, primary and confirmatory (AID 624330); assay type: functional
# T3 sequence (Q9H0H5 whole entry): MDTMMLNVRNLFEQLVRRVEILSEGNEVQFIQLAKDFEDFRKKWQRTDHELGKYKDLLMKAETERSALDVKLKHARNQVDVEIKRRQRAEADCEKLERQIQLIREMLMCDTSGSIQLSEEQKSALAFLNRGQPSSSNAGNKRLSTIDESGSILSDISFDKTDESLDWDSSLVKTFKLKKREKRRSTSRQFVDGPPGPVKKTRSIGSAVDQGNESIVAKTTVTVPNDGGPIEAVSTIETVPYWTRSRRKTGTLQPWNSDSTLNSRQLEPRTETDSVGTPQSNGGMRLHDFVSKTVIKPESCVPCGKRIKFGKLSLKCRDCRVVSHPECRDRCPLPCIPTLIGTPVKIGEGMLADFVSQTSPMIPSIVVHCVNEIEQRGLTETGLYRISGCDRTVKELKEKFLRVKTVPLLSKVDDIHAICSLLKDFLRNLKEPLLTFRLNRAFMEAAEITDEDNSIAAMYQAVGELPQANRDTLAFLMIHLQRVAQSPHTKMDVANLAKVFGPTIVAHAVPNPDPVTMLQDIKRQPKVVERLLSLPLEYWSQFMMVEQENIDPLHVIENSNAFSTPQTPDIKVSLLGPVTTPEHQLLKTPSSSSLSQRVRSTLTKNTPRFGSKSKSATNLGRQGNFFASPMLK
# [16] = molecular target: T4, Sentrin-specific protease 1 (Homo sapiens, UniProt Q9P0U3); experiment: Dose response confirmation of small molecule inhibitors of the catalytic domain of the SUMO protease, SENP1 in a FRET assay.; assay type: functional; details: read-out: IC50_Mean
# T4 sequence (Q9P0U3 whole entry, the tested form may be a part): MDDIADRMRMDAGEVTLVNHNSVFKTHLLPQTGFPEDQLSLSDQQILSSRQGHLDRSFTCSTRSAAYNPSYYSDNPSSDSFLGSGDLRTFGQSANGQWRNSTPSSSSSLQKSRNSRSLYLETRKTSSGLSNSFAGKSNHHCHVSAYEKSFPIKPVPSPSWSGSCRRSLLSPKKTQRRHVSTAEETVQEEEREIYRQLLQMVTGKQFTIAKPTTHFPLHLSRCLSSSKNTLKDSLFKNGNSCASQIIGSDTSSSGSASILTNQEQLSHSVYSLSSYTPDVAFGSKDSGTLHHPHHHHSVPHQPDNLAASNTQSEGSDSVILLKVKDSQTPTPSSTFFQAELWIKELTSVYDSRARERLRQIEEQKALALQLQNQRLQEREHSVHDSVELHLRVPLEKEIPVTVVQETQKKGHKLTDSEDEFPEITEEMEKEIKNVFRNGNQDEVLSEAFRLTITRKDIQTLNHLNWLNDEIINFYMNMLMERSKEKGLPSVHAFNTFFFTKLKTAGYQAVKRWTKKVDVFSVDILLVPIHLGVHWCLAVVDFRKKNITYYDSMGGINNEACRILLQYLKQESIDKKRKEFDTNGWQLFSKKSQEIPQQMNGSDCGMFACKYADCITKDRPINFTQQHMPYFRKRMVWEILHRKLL
# [17] = HeLa cell cytotoxicity, dose response, cytotoxicity control for MgcRacGAP inhibitor project (AID 624300); assay type: functional
# [18] = microbe, parasite or virus in culture; assay type: functional; details: Mycobacterium tuberculosis
# [19] = molecular target: T4, Sentrin-specific protease 1; experiment: potency of human SENP1 inhibitors, dose response, biochemical, kinetic FRET (AID 651697); assay type: functional; details: read-out: IC50_Mean
# [20] = molecular target: T5, Probable nicotinate-nucleotide adenylyltransferase (Staphylococcus aureus (strain N315), UniProt P65502); assay type: functional, Staphylococcus aureus subsp. aureus N315; details: read-out: IC50_Mean;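 as to IC50 Mean: confirmatory dose-response retesting of NadD inhibitor hits first found in an ultra-high-throughput screen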
# T5 sequence (P65502 whole entry): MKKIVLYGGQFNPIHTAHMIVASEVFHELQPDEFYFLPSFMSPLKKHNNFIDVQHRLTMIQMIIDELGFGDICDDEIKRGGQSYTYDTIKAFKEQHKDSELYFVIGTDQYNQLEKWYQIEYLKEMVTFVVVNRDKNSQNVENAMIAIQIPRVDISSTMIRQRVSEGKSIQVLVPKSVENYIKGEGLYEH
# [21] = molecular target: T5, Probable nicotinate-nucleotide adenylyltransferase; assay type: functional, Staphylococcus aureus subsp. aureus N315
# [22] = molecular target: T6, Heat shock factor protein 1 (Mus musculus, UniProt P38532); experiment: inhibition of MG132-induced HSE-luciferase signal, confirmation, cell-based, NIH3T3, luminescence, dose retest (AID 2382); assay type: functional;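 also: NIH3T3 fibroblasts with HSF1-driven luciferase reporter stressed by proteasome inhibitor MG132; luminescence from HSF1-driven luciferase expression after 8 hours of MG132 stress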
# T6 sequence (P38532 whole entry): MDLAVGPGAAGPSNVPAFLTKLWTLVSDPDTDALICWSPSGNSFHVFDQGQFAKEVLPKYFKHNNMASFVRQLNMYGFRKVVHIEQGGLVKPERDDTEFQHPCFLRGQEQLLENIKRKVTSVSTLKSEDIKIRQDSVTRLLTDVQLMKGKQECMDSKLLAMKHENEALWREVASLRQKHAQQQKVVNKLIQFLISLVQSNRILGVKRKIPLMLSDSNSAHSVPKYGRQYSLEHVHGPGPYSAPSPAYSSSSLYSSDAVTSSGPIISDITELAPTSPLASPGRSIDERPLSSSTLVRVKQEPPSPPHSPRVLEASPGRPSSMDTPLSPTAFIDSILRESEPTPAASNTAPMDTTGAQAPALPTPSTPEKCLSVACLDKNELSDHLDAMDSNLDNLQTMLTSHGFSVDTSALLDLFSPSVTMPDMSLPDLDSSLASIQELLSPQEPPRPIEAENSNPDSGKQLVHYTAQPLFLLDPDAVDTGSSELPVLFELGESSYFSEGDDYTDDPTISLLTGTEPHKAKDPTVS
# [23] = cytotoxicity in NIH3T3 fibroblasts, dose response, cytotoxicity control for HSP40 inhibitor project, cell-based, CellTiter-Glo luminescence, cherry-pick, set 2 (AID 624265); assay type: functional
# cells [24] = assay type: functional, cell-based
# [25] = C. albicans growth with fluconazole, confirmation, fluorescence, retest (AID 2467); assay type: functional, cell-based
# INS1 = experiment: beta cell apoptosis inhibitors, cytokine rescue, dose response, luminescence, retest (AID 449756); assay type: functional, cell-based; details: Rattus norvegicus;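 also: cell death triggered by IL-1 beta plus TNF-alpha plus IFN-gamma mixture; protective hits raise ATP signal compared with cytokine alone wells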
# cells [26] = assay type: functional, cell-based; remark: listed apart in the source
# [27] = NIH-3T3 fibroblast cytotoxicity, dose response, cytotoxicity control, cell-based, fluorescence, Alamar Blue, secondary assay (AID 2327); assay type: functional;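 also: NIH-3T3 mouse fibroblasts cultured with fluconazole at 8 µg/mL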
compound,measurement,setting,value
COc1cccc(C2CC(c3cccs3)=NN2C(=O)c2ccco2)c1O (stereo unspecified),IC50,[1],5.3 µM (active)
same,IC50,[2],1.51 µM (active)
same,EC50,[3],> 53 µM (inactive)
O=C(NCc1cccnc1)c1cccc2c1C(=O)N(C1CCCCC1)C2,IC50,[4],35.9 µM (inactive)
same,IC50,Steroidogenic factor 1,3.71 µM (active)
same,IC50,[5],17.8 µM (inactive)
same,IC50,[6],27.4 µM (not active)
Cc1cc(=O)oc2cc(OCc3ccc(C(=O)OCC(=O)Nc4ccccc4OC(F)F)cc3)ccc12,IC50,[7],31.3 µM (inactive)
C=C1C(=O)C23CCC4C(C)(C(=O)OC)CCCC4(C)C2CCC1(O)C3 (stereo unspecified),AC50,[8],1.27 µM (active)
same,IC50,[9],1.36 µM (active)
same,AC50,[10],0.976 µM (active)
same,IC50,Beta Lactamase,46.8 µM (inactive)
same,AC50,[11],1.66 µM (active)
same,AC50,[12],5.71 µM (active)
Cc1cc(N2CCN(C(=O)c3ccoc3)CC2)n2nc(-c3ccc(Br)cc3)cc2n1,EC50,[13],2.08 µM (active)
same,EC50,[14],11.2 µM (active)
C/C(=N\NC(=O)c1ccc(O)cc1)c1ccc2c(c1)Nc1ccccc1S2,IC50,[15],35.3 µM (active)
same,IC50,[16],4.61 µM (active)
same,CC50,[17],86.9 µM (active)
same,CC50,[18],21.2 µM (active)
same,IC50,[19],7.06 µM (active)
Cc1nn(-c2ccccc2)c(N2CCCC2)c1/C=N/NC(=O)c1cccc(S(=O)(=O)Nc2ccc(Cl)cc2)c1,IC50,[20],28.9 µM (active)
same,IC50,[21],8.05 µM (active)
Oc1ccc(Br)cc1/C=N/Nc1ccccn1,EC50,[22],3.19 µM (active)
same,AbsAC35_uM,[23],82.89 µM
same,AC50,[8],1.32 µM (active)
same,EC50,cells [24],22.5 µM (active)
same,EC50,[25],1.51 µM (active)
same,AC50,INS1,1.98 µM (active)
same,EC50,cells [26],6.83 µM (active)
same,EC50,[27],3.83 µM (inconclusive)
